The source of these data is ChEMBL document CHEMBL2034952, “Chalcone-benzoxaborole hybrid molecules as potent antitrypanosomal agents” (J Med Chem, 2012).

In brackets after ≈: the same amount, converted by molar mass. Activity calls are given as the source filed them. The rule behind the calls is not given here. Where only a bound is given, the exact number is not on record here.

Data set [1] has as its system Trypanosoma brucei. In words: Antitrypanosomal activity against bloodstream Trypanosoma brucei 427 after 72 hrs by resazurin assay. The class given is functional, organism-based. To be noted: Trypanosoma brucei, 427, 72 h. In general terms: Resazurin is reduced to fluorescent resorufin, in cell work by metabolically active cells.
In the next data set the test system is L929. Nature of the data set: Cytotoxicity against mouse L929 cells after 72 hrs by resazurin assay. The class given is cell-based. To be noted: L929, 72 h.
Data set [2] in a line: Selectivity ratio of IC50 for mouse L929 cells to IC50 for bloodstream Trypanosoma brucei 427. Format: ADME, cell-based. To be noted: read-out: Ratio IC50.
For data set [3], the system named is Trypanosoma brucei. Nature of the data set: Antitrypanosomal activity against bloodstream Trypanosoma brucei 221 infected in Balb/c mouse assessed as increase in mouse survival rate at 50 mg/kg, ip BID for 5 days starting 24 hrs post infection measured after 30 days by microscopic analysis. The class given is functional. To be noted: Trypanosoma brucei, 221, ip, route intraperitoneal.

In data set [4] the test system is Trypanosoma brucei. In words: Antitrypanosomal activity against bloodstream Trypanosoma brucei 221 infected in Balb/c mouse assessed as complete elimination of parasitemia at 50 mg/kg, ip BID for 5 days starting 24 hrs post infection measured after 30 days by microscopic analysis. Format: functional, organism-based. The arrangement: dose 50 mg/kg.

One may read the IC50 as the concentration that inhibits the measured activity by half. A higher IC50 goes with a need for much substance. As for `COc1cc(C(=O)/C=C/c2ccc3c(c2)B(O)OC3)ccc1N`, the IC50 worked out at 0.01 µg/mL (≈ 0.0323 µM) in the data set with Trypanosoma brucei [1] and 1.45 µg/mL (≈ 4.69 µM) in the data set with L929. Further, in data set [2], the selectivity ratio is over 100. For the same compound, the survival at 50 mg/kg with Trypanosoma brucei [3] is 100%. Also, in the data set on Trypanosoma brucei [4], the result was Active.
Take `COc1ccc(C(=O)/C=C/c2ccc3c(c2)B(O)OC3)cc1OC`: the figures for the IC50 in the data set with Trypanosoma brucei [1] and with L929 were 0.03 µg/mL (≈ 0.0926 µM) and over 10 µg/mL, respectively.
For `COc1ccc(C(=O)/C=C/c2ccc3c(c2)B(O)OC3)c(OC)c1` the same measures were 0.037 µg/mL (≈ 0.114 µM) and 7.87 µg/mL (≈ 24.3 µM).
As to `Cc1cccc(C(=O)/C=C/c2ccc3c(c2)B(O)OC3)c1`, the IC50 turned out to be 0.048 µg/mL (≈ 0.173 µM) in the data set on Trypanosoma brucei [1] and 8.56 µg/mL (≈ 30.8 µM) in the data set on L929. Moreover, the survival at 50 mg/kg with Trypanosoma brucei [3] was 0%.
Consider `O=C(/C=C/c1ccc2c(c1)B(O)OC2)c1ccc(OCc2ccccc2)cc1`, for which the 50% inhibitory concentration (IC50) in the data set with Trypanosoma brucei [1] was 0.164 µg/mL (≈ 0.443 µM); with L929, over 10 µg/mL.
With `O=C(/C=C/c1ccc2c(c1)B(O)OC2)c1ccc(Cl)cc1`, the IC50 with Trypanosoma brucei [1] is 0.06 µg/mL (≈ 0.201 µM); in the data set with L929, over 10 µg/mL. Besides, the survival at 50 mg/kg with Trypanosoma brucei [3] came to 0%.
With `O=C(/C=C/c1ccc2c(c1)B(O)OC2)c1ccc(Cl)c(Cl)c1`, the IC50 in the data set on Trypanosoma brucei [1] was 0.09 µg/mL (≈ 0.27 µM); in the data set with L929 it was over 10 µg/mL.
On to `CCOC(=O)c1ccc(C(=O)/C=C/c2ccc3c(c2)B(O)OC3)cc1`, for which the IC50 is 0.2 µg/mL (≈ 0.595 µM) in the data set with Trypanosoma brucei [1] and over 10 µg/mL with L929.
With `O=C(/C=C/c1ccc2c(c1)B(O)OC2)c1ccccc1`, the IC50 in the data set with Trypanosoma brucei [1] is 0.089 µg/mL (≈ 0.337 µM); in the data set on L929, over 10 µg/mL. The survival at 50 mg/kg with Trypanosoma brucei [3] came to 0%.
For `Cc1ccc(C(=O)/C=C/c2ccc3c(c2)B(O)OC3)cc1C`, the IC50 is 0.04 µg/mL (≈ 0.137 µM) in the data set on Trypanosoma brucei [1] and over 10 µg/mL in the data set with L929.
For `O=C(/C=C/c1ccc2c(c1)B(O)OC2)c1ccccc1O` the same measures were 0.172 µg/mL (≈ 0.614 µM) and over 10 µg/mL.
Consider `COCOc1ccccc1C(=O)/C=C/c1ccc2c(c1)B(O)OC2`, for which the IC50 was 0.366 µg/mL (≈ 1.13 µM) in the data set on Trypanosoma brucei [1] and 9.02 µg/mL (≈ 27.8 µM) with L929.
The corresponding values for `OB1OCc2ccc(/C=C/C(O)c3ccccc3)cc21` (centres undefined) are 0.239 µg/mL (≈ 0.898 µM) and 2.88 µg/mL (≈ 10.8 µM).
As for `O=C(/C=C/c1ccc2c(c1)B(O)OC2)c1ccc(F)cc1`, the results for the IC50 in the data set with Trypanosoma brucei [1] and with L929 were 0.1 µg/mL (≈ 0.355 µM) and over 10 µg/mL, respectively. Further, in the data set with Trypanosoma brucei [3], the survival at 50 mg/kg is 0%.
For `CC(=O)Nc1ccc(C(=O)/C=C/c2ccc3c(c2)B(O)OC3)cc1`, the results for the IC50 in the data set on Trypanosoma brucei [1] and in the data set with L929 were 0.04 µg/mL (≈ 0.125 µM) and over 10 µg/mL, respectively. Besides, the survival at 50 mg/kg with Trypanosoma brucei [3] came to 0%.
For `COc1cccc(C(=O)/C=C/c2ccccc2)c1`, the IC50 in the data set on Trypanosoma brucei [1] stood at 0.395 µg/mL (≈ 1.66 µM); with L929, 5.7 µg/mL (≈ 23.9 µM).
As to `Cn1cccc1C(=O)/C=C/c1ccc2c(c1)B(O)OC2`, the IC50 is 0.057 µg/mL (≈ 0.213 µM) in the data set on Trypanosoma brucei [1] and over 10 µg/mL with L929.
The corresponding values for `O=C(/C=C/c1ccc2c(c1)B(O)OC2)c1ccc(O)cc1` are 0.043 µg/mL (≈ 0.154 µM) and over 10 µg/mL.
With `COCOc1cccc(C(=O)/C=C/c2ccc3c(c2)B(O)OC3)c1`, the IC50 is 0.071 µg/mL (≈ 0.219 µM) with Trypanosoma brucei [1] and over 10 µg/mL with L929. For the same compound, the survival at 50 mg/kg in the data set with Trypanosoma brucei [3] came out at 0%.
For `O=C(/C=C/c1ccc2c(c1)B(O)OC2)c1ccc(O)c(O)c1`, the results for the IC50 in the data set on Trypanosoma brucei [1] and in the data set on L929 were 0.055 µg/mL (≈ 0.186 µM) and over 10 µg/mL, respectively.
Regarding `O=C(/C=C/c1ccc2c(c1)B(O)OC2)c1cccc(O)c1`, the IC50 in the data set with Trypanosoma brucei [1] worked out at 0.037 µg/mL (≈ 0.132 µM); with L929, 7.56 µg/mL (≈ 27 µM).
Regarding `COc1ccccc1C(=O)/C=C/c1ccc2c(c1)B(O)OC2`, the IC50 in the data set on Trypanosoma brucei [1] is 0.058 µg/mL (≈ 0.197 µM); with L929, 6.35 µg/mL (≈ 21.6 µM).
Regarding `COc1cc(C(=O)/C=C/c2ccc3c(c2)B(O)OC3)ccc1[N+](=O)[O-]`, the values for the IC50 in the data set with Trypanosoma brucei [1] and with L929 were 0.044 µg/mL (≈ 0.13 µM) and over 10 µg/mL, respectively. In addition, in the data set with Trypanosoma brucei [3], the survival at 50 mg/kg came to 0%.
As for `O=C(/C=C/c1ccc2c(c1)B(O)OC2)c1ccc(C(F)(F)F)cc1`, the IC50 with Trypanosoma brucei [1] is 0.133 µg/mL (≈ 0.4 µM); with L929 it was over 10 µg/mL.
The corresponding values for `O=C(/C=C/c1ccc2c(c1)B(O)OC2)c1ccccc1F` are 0.071 µg/mL (≈ 0.252 µM) and over 10 µg/mL.
For `O=C(/C=C/c1ccc2c(c1)B(O)OC2)c1ccc2c(c1)OCCO2` the same measures were 0.08 µg/mL (≈ 0.248 µM) and 6.8 µg/mL (≈ 21.1 µM).
The corresponding values for `O=C(CCc1ccc2c(c1)B(O)OC2)c1ccccc1` are 0.331 µg/mL (≈ 1.24 µM) and over 10 µg/mL.
For `O=C(/C=C/c1ccc2c(c1)B(O)OC2)c1ccccn1`, the IC50 with Trypanosoma brucei [1] is 0.099 µg/mL (≈ 0.373 µM); in the data set with L929 it was over 10 µg/mL.
Take `COc1ccc(C(=O)/C=C/c2ccc3c(c2)B(O)OC3)cc1`: the results for the IC50 in the data set with Trypanosoma brucei [1] and in the data set on L929 were 0.071 µg/mL (≈ 0.241 µM) and over 10 µg/mL, respectively. Besides, the survival at 50 mg/kg with Trypanosoma brucei [3] amounted to 0%.
In the case of `O=C(O)c1ccc(C(=O)/C=C/c2ccc3c(c2)B(O)OC3)cc1`, the IC50 with Trypanosoma brucei [1] is 4.45 µg/mL (≈ 14.4 µM); in the data set with L929, over 10 µg/mL.
For `O=C(/C=C/c1ccc2c(c1)B(O)OC2)c1ccco1` the same measures were 0.064 µg/mL (≈ 0.252 µM) and over 10 µg/mL.
The corresponding values for `O=C(/C=C/c1ccc2c(c1)B(O)OC2)c1cccc(F)c1` are 0.046 µg/mL (≈ 0.163 µM) and over 10 µg/mL.
As to `COc1cccc(C(=O)CCc2ccc3c(c2)B(O)OC3)c1`, the IC50 was 0.69 µg/mL (≈ 2.33 µM) in the data set on Trypanosoma brucei [1] and over 10 µg/mL in the data set on L929.
For `O=C(/C=C/c1ccc2c(c1)B(O)OC2)c1ccc(I)cc1` the same measures were 0.171 µg/mL (≈ 0.438 µM) and over 10 µg/mL.
For `O=C(/C=C/c1ccccc1)c1ccccc1` [CHALCONE] the same measures were 0.473 µg/mL (≈ 2.27 µM) and 6.92 µg/mL (≈ 33.2 µM).
With `COc1cc(C(=O)/C=C/c2ccc3c(c2)B(O)OC3)cc(OC)c1OC`, the results for the IC50 with Trypanosoma brucei [1] and in the data set on L929 were 0.113 µg/mL (≈ 0.319 µM) and over 10 µg/mL, respectively.
For the compound `CSc1ccc(C(=O)/C=C/c2ccc3c(c2)B(O)OC3)cc1`, the values for the IC50 in the data set on Trypanosoma brucei [1] and in the data set on L929 were 0.059 µg/mL (≈ 0.19 µM) and over 10 µg/mL, respectively.
Take `O=C(/C=C/c1ccc2c(c1)B(O)OC2)c1ccc(Br)cc1`: the IC50 in the data set with Trypanosoma brucei [1] was 0.09 µg/mL (≈ 0.262 µM); in the data set on L929 it was over 10 µg/mL. In addition, in the data set on Trypanosoma brucei [3], the survival at 50 mg/kg stood at 0%.
In the case of `O=C(/C=C/c1ccc2c(c1)B(O)OC2)c1cccc2ccccc12`, the figures for the IC50 in the data set on Trypanosoma brucei [1] and with L929 were 0.135 µg/mL (≈ 0.43 µM) and 3.67 µg/mL (≈ 11.7 µM), respectively.
The corresponding values for `Nc1ccc(C(=O)/C=C/c2ccc3c(c2)B(O)OC3)cc1` are 0.024 µg/mL (≈ 0.086 µM) and over 10 µg/mL.
For `CCc1ccc(C(=O)/C=C/c2ccc3c(c2)B(O)OC3)cc1` the same measures were 0.064 µg/mL (≈ 0.219 µM) and over 10 µg/mL.
Consider `Nc1cccc(C(=O)/C=C/c2ccc3c(c2)B(O)OC3)c1`, for which the values for the IC50 in the data set on Trypanosoma brucei [1] and in the data set with L929 were 0.056 µg/mL (≈ 0.201 µM) and 10 µg/mL (≈ 35.8 µM), respectively.
For `COc1cccc(C(=O)/C=C/c2ccc3c(c2)B(O)OC3)c1`, the values for the IC50 in the data set with Trypanosoma brucei [1] and in the data set with L929 were 0.022 µg/mL (≈ 0.0748 µM) and over 10 µg/mL, respectively. Further, the survival at 50 mg/kg in the data set with Trypanosoma brucei [3] was determined as 100%. Moreover, the result in the data set with Trypanosoma brucei [4] was Active.
As to `Cc1ccc(C(=O)/C=C/c2ccc3c(c2)B(O)OC3)cc1`, the results for the IC50 in the data set on Trypanosoma brucei [1] and in the data set with L929 were 0.046 µg/mL (≈ 0.165 µM) and over 10 µg/mL, respectively.
The corresponding values for `O=C(/C=C/c1ccc2c(c1)B(O)OC2)c1ccc(-c2ccccc2)cc1` are 0.436 µg/mL (≈ 1.28 µM) and over 10 µg/mL.
In the case of `O=C(/C=C/c1ccc2c(c1)B(O)OC2)c1cccs1`, the figures for the IC50 in the data set with Trypanosoma brucei [1] and with L929 were 0.045 µg/mL (≈ 0.167 µM) and over 10 µg/mL, respectively. For the same compound, the survival at 50 mg/kg in the data set on Trypanosoma brucei [3] was 20%.
`O=C(/C=C/c1ccc2c(c1)B(O)OC2)c1ccc([N+](=O)[O-])cc1`: the IC50 was 0.082 µg/mL (≈ 0.265 µM) in the data set with Trypanosoma brucei [1] and over 10 µg/mL in the data set on L929.
